Laboratory results as given in patent EP0604354B1, “Antidepressant and antiparkinsonian compounds” (N[…]/S, priority 1992, dated 1994).

Tests used:
[1] = test system: haloperidol-induced catalepsy; assay: catalepsy test for antiparkinsonian effects (antagonism of haloperidol-induced catalepsy); format: in vivo; details: rat, given perorally 1 h before haloperidol 0.25 mg/kg s.c.; read-out: Minimum effective dose (peroral administration)
Description: The day before testing, the rats weighing 200-250 g are housed 2 and 2 together in standard macrolon cages. […] The testing for the immobile catalepsy syndrome includes 4 tests performed in the following consecutive order: • 1) a vertical wire netting (40x40 cm high).The meshes (openings) of the nettings are approximately 1x2cm. • 2) a horizontal bar 9 cm above the floor • 3) a 9 cm high block (bar) • 4) a 3 cm high block (cork)
The rats were scored for the immobile cataleptic syndrome every 15 min in all 4 tests starting 15 min after the haloperidol injection. The intensity of catalepsy was tested during 10 sec in all tests and evaluated according to a criteria of 10 sec of total immobility for a score of 2.
The rat was placed in the middle of the vertical wire netting, then on the horizontal bar in an extended position with support by both the forelegs on the bar. The rats were then tested, whether or not they were willing to sit with the left or right forelegs placed first on the 9 and then on the 3 cm block for a duration of 10 sec. The maximum score for all 4 tests is thus a total of 8.

[2] = test system: abnormal stereotyped behaviour; assay: abnormal stereotyped behaviour (high intensity stereotypy rating); format: in vivo; details: rat, 50 mg/kg i.p.
Description: Backward locomotion may occasionally be observed.

[3] = target: T1, reuptake of dopamine in synaptosomes of rat forebrain (Rattus norvegicus, UniProt P23977); assay: inhibition of reuptake of 3H-dopamine in synaptosomes of rat forebrain; format: biochemical
T1 construct: Fresh whole forebrain (at 0-4°C) from male Wistar rats (150-200 g) is homogenized; from tissue; host or cells: male Wistar rat whole forebrain, crude synaptosomal supernatant
T1 sequence (P23977 whole entry): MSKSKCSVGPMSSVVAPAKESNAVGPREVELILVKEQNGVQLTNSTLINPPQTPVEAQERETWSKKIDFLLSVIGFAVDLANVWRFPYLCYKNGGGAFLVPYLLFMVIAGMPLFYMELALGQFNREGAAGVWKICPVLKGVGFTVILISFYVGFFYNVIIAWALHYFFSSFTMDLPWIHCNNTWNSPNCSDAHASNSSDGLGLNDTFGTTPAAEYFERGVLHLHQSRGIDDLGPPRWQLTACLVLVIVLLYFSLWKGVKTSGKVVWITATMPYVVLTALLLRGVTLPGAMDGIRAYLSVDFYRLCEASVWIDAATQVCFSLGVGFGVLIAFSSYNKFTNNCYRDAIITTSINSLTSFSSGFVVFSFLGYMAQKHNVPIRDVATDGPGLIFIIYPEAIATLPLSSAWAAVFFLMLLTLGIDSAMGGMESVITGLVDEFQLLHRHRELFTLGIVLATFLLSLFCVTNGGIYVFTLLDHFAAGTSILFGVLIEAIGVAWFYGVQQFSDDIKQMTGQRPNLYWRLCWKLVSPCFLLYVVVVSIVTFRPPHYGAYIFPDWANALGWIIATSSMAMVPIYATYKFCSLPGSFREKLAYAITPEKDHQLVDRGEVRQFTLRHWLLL
Description: Fresh whole forebrain (at 0-4°C) from male Wistar rats (150-200 g) is homogenized in a glass homogenizer with a teflon pestle in 20 x volumes 0.32M sucrose. The homogenate is centrifuged at 1000 x g (∼ 2900 rpm) for 10 min. The pellet is discarded and the supernatant is used for uptake assays.
A Krebs Buffer (119 mM NaCI, 24 mM NaHCO3, 2.1 mM KCI, 1.2 mM KH2PO4, 1.8 mM CaCl2, 2 mM MgSO4, 7H2O, 12 mM glucose) is equilibrated with an atmosphere of 96% O2: 4% CO2 for at least 60 min at 37°C. To 5 ml Krebs-buffer 100 µl of the radioactivity is added (3H-dopamine 1 x 10^-9M final concentration) and 100 µl test substance solution and 200 µl of tissue suspension. The samples are thoroughly mixed and incubated 10 min at 37°C followed by 2 min at 0°C. After incubation the samples are poured directly onto Whatman GF/C glass fibre filters under suction and immediately washed with 2 x 5 ml ice-cold 0.9% saline (NaCI) buffer. To the filter is added 3 ml of scintillation fluid, and the amount of radioactivity on the filters is determined by conventional liquid scintillation counting.

[4] = test system: rearing and locomotor activities; assay: behavioural excitatory locomotor and rearing responses (gross behaviour rating); format: in vivo; details: rat, 50 mg/kg i.p., maximum peak effect, observed 5-6 hrs
Description: Male SPF wistar rats weighing 200-250g were used for the gross behavioural studies. All rats were transferred the day before the experiments to individual cages made of wire netting (floor area 21 x 27 cm, height 16 cm) at a room temperature of 21-23° C. […] The behavioural elements here classified as rearing (i.e. standing up on the hindlegs) and locomotor activities (i.e. forward running activities) were registered, and the maximum peak effects were classified according to the following rating scale: • 0 = non-existent or very infrequent • + = weak and infrequent • ++ = moderate in intensity and frequency • +++ = very strong, continuous and intense
The degree of locomotor activity was also tested and measured quantitatively in photocell activity cages. For the measurement of this locomotor activity 100 g female rats are used.

[5] = test system: dopamine release; assay: dopamine releasing properties (no method given)

CN1[C@H]2CC[C@@H]1[C@H](COc1ccc(Cl)cc1)[C@@H](c1ccc(F)cc1)C2.Cl [(1R,2R,3S)-2-(4-Chlorophenoxy-methyl)-3-(4-fluorophenyl)tropane, hydrochloride]
minimal effective dose [1]: < 1 mg/kg
Activity (abnormal stereotyped behaviour, high intensity stereotypy) [2]: 0
IC50 [3]: 390 nM
Activity (excitatory locomotor and rearing responses) [4]: 0

COC(=O)[C@@H]1[C@@H](c2ccc(F)cc2)C[C@@H]2CC[C@H]1N2C [trans isomer of Win 35,428]
dopamine releasing properties [5]: essentially free of dopamine releasing properties
